Experimental data reported in patent US8354419B2, “Benzimidazole analogues for the treatment or prevention of flavivirus infections” (Vertex Pharmaceuticals Incorporated, priority 2009, dated 2013).

Test system: HCV (Ib) RNA replication
Assay: Cell-based luciferase reporter HCV (1b) RNA replication assay (replicon cell lines Huh-7 5.2 and ET)
Parameters: species or system Hepatitis C virus
Details: Hepatitis C virus, Huh-7, 96 h, HCV 1b genotype replicon, luciferase readout, 4 days incubation; read-out: EC50_1b
From the text: Cell-Based Luciferase Reporter HCV (Ib) RNA Replication Assay Cell Culture
Replicon cell lines Huh-7, 5.2 and ET which are derived from the Huh-7 hepatocarcinoma cell line are maintained in culture as generally described in Krieger, N; Lohmann, V; Bartenschlager, R. Enhancement of hepatitis C virus RNA replication by cell culture-adaptive mutations. J. Virol. 2001, 75, 4614-4624. The Huh-7, 5.2 cells contain the highly cell culture-adapted replicon I389luc-ubi-neo/NS3-3′/5.1 construct that carries, in addition to the neomycin gene, an integrated copy to the firefly luciferase gene (Krieger, N; Lohmann, V; Bartenschlager, R. Enhancement of hepatitis C virus RNA replication by cell culture-adaptive mutations. J. Virol. 2001, 75, 4614-4624). This cell line allows measurement of HCV RNA replication and translation by measuring luciferase activity. It has been previously shown that the luciferase activity tightly follows the replicon RNA level in these cells (Krieger, N; Lohmann, V; Bartenschlager, R. Enhancement of hepatitis C virus RNA replication by cell culture-adaptive mutations. J. Virol. 2001, 75, 4614-4624). The Huh-7, ET cell line has the same features as those mentioned for Huh-7, 5.2 cell line, except that ET cells are more robust and contain an adaptative mutation in the HCV NS4B gene instead of NS5A. Both cell lines are maintained in cultures at a sub-confluent level (<85%) as the level of replicon RNA is highest in actively proliferating cells. The culture media used for cell passaging consist of DMEM (Gibco BRL Laboratories, Mississauga, ON, Canada) supplemented with 10% foetal bovine serum with 1% penicillin/streptomycin, 1% glutamine, 1% sodium pyruvate, 1% non-essential amino acids, and 180 ug/ml of G418 final concentration. Cells are incubated at 37° C., in an atmosphere of 5% CO2 and passaged twice a week to maintain sub-confluence.
Approximately 3000 viable Huh-7, 5.2 or ET cells (100 μl) are plated per well in a white opaque 96-well microtiter plate. The cell culture media used for the assay is the same as described above except that it contains no G418 and no phenol red. After an incubation period of 3-4 hours at 37° C. in a 5% CO2 incubator, compounds (100 μl) are added at various concentrations. Cells are then further incubated for 4 days at 37° C. in a 5% CO2 incubator. Thereafter, the culture media is removed and cells are lysed by the addition of 95 μL of the luciferase buffer (luciferin substrate in buffered detergent). Cell lysates are incubated at room temperature and protected from direct light for at least 10 minutes. Plates are read for luciferase counts using a luminometer (Wallac MicroBeta Trilux, Perkin ELmer™, MA, USA).
The 50% inhibitory concentrations (IC50s) for inhibitory effect are determined from dose response curves using eleven concentrations per compound in duplicate. Curves are fitted to data points using nonlinear regression analysis, and IC50s are interpolated from the resulting curve using GraphPad Prism software, version 2.0 (GraphPad Software Inc., San Diego, Calif., USA).
Table 2 show compounds representative of the present invention and the EC50 values against the HCV 1b genotype.

SMILES | EC50 [nM]
COC(=O)N[C@H](C(=O)N1CCC[C@H]1c1nc2cc(-c3cc(C)c(-c4ccc5nc([C@@H]6CCCN6C(=O)[C@@H](NC(=O)OC)C(C)C)[nH]c5c4)cc3C)ccc2[nH]1)C(C)C [Compound 14, ((S)-1-{(S)-2-[5-(4-{2-[(S)-1-((S)-2-Methoxycarbonylamino-3-methyl-butyryl)-pyrrolidin-2-yl]-1H-benzoimidazol-5-yl}-2,5-dimethyl-phenyl)-1H-benzoimidazol-2-yl]-pyrrolidine-1-carbonyl}-2-methyl-propyl)-carbamicacid methyl ester] | ≤ 5
COC(=O)N[C@H](C(=O)N1CCC[C@H]1c1nc2cc(-c3cnc(-c4ccc5[nH]c([C@@H]6CCCN6C(=O)[C@@H](NC(=O)OC)C(C)C)nc5c4)nc3)ccc2[nH]1)C(C)C [Compound 15, ((S)-1-{(S)-2-[5-(5-{2-[(S)-1-((S)-2-Methoxycarbonylamino-3-methyl-butyryl)-pyrrolidin-2-yl]-1H-benzoimidazol-5-yl}-pyrimidin-2-yl)-1H-benzoimidazol-2-yl]-pyrrolidine-1-carbonyl}-2-methyl-propyl)-carbamic acid methyl ester] | ≤ 5
CC(C)(C)OC(=O)N1CCC[C@H]1c1nc2cc(-c3ccc(-c4ccc5[nH]c([C@@H]6CCCN6C(=O)OC(C)(C)C)nc5c4)s3)ccc2[nH]1 [Compound 16, (2S,2′S)-tert-butyl-2,2′-(5,5′-(thiophene-2,5-diyl)bis(1H-benzo[d]imidazole-5,2-diyl))dipyrrolidine-1-carboxylate] | 5 to 5000
COC(=O)N[C@H](C(=O)N1CCC[C@H]1c1nc2cc(-c3ccc(-c4ccc5[nH]c([C@@H]6CCCN6C(=O)[C@@H](NC(=O)OC)C(C)C)nc5c4)s3)ccc2[nH]1)C(C)C [Compound 17] | ≤ 5
COC(=O)N[C@H](C(=O)N1CCC[C@H]1c1nc2cc(-c3csc(-c4ccc5[nH]c([C@@H]6CCCN6C(=O)[C@@H](NC(=O)OC)C(C)C)nc5c4)c3)ccc2[nH]1)C(C)C [Compound 18, methyl N-[(1S)-1-[(2S)-2-[5-[4-[2-[(2S)-1-[(2S)-2-(methoxycarbonylamino)-3-methyl-butanoyl]pyrrolidin-2-yl]-1H-benzimidazol-5-yl]-2-thienyl]-1H-benzimidazol-2-yl]pyrrolidine-1-carbonyl]-2-methyl-propyl]carbamate] | ≤ 5
COC(=O)N[C@H](C(=O)N1CCC[C@H]1c1nc2cc(-c3ncc(-c4ccc5nc([C@@H]6CCCN6C(=O)[C@@H](NC(=O)OC)C(C)C)[nH]c5c4)c(OCc4ccccc4)n3)ccc2[nH]1)C(C)C [Compound 19, ((S)-1-{(S)-2-[5-(4-Benzyloxy-5-{2-[(S)-1-((S)-2-methoxycarbonylamino-3-methyl-butyryl)-pyrrolidin-2-yl]-1H-benzoimidazol-5-yl}-pyrimidin-2-yl)-1H-benzoimidazol-2-yl]-pyrrolidine-1-carbonyl}-2-methyl-propyl)-carbamic acid methyl ester] | ≤ 5
COC(=O)N[C@H](C(=O)N1CCC[C@H]1c1nc2cc(-c3ncc(-c4ccc5nc([C@@H]6CCCN6C(=O)[C@@H](NC(=O)OC)C(C)C)[nH]c5c4)c(O)n3)ccc2[nH]1)C(C)C [Compound 20, ((S)-1-{(S)-2-[5-(4-Hydroxy-5-{2-[(S)-1-((S)-2-methoxycarbonylamino-3-methyl-butyryl)-pyrrolidin-2-yl]-1H-benzoimidazol-5-yl}-pyrimidin-2-yl)-1H-benzoimidazol-2-yl]-pyrrolidine-1-carbonyl}-2-methyl-propyl)-carbamic acid methyl ester] | 5 to 5000
COC(=O)N[C@H](C(=O)N1CCC[C@H]1c1nc2ccc(-c3cn(-c4ccc5nc([C@@H]6CCCN6C(=O)[C@@H](NC(=O)OC)C(C)C)[nH]c5c4)nn3)cc2[nH]1)C(C)C [Compound 21, ((S)-1-{(S)-2-[6-(1-{2-[(S)-1-((S)-2-Methoxycarbonylamino-3-methyl-butyryl)-pyrrolidin-2-yl]-3H-benzoimidazol-5-yl}-1H-[1,2,3]triazol-4-yl)-1H-benzoimidazol-2-yl]-pyrrolidine-1-carbonyl}-2-methyl-propyl)-carbamic acid methyl ester] | ≤ 5
CC[C@@H]1CC[C@@H](c2nc3cc(-c4ccc(-c5ccc6nc([C@@H]7CC[C@@H](CC)N7C(=O)[C@@H](NC(=O)OC)C(C)C)[nH]c6c5)cc4)ccc3[nH]2)N1C(=O)[C@@H](NC(=O)OC)C(C)C [Compound 24, ((S)-1-{(2R,5S)-2-Ethyl-5-[5-(4-{2-[(2S,5R)-5-ethyl-1-((S)-2-methoxycarbonylamino-3-methyl-butyryl)-pyrrolidin-2-yl]-1H-benzoimidazol-5-yl}-phenyl)-1H-benzoimidazol-2-yl]-pyrrolidine-1-carbonyl}-2-methyl-propyl)-carbamic acid methyl ester] | ≤ 5
COC(=O)N[C@H](C(=O)N1C[C@H](OC(C)(C)C)C[C@H]1c1nc2cc(-c3ccc(-c4ccc5[nH]c([C@@H]6C[C@@H](OC(C)(C)C)CN6C(=O)[C@@H](NC(=O)OC)C(C)C)nc5c4)cc3)ccc2[nH]1)C(C)C [Compound 25, ((S)-1-{(2S,4R)-4-tert-butoxy-2-[5-(4-{2-[(2S,4R)-4-tert-butoxy-1-((S)-2-methoxycarbonylamino-3-methyl-butyryl)-pyrrolidin-2-yl]-1H-benzoimidazol-5-yl}-phenyl)-1H-benzoimidazol-2-yl]-pyrrolidine-1-carbonyl}-2-methyl-propyl)-carbamic acid methyl ester] | ≤ 5
COC(=O)N[C@H](C(=O)N1CCC[C@H]1c1nc2cc(F)c(-c3ccc(-c4cc5[nH]c([C@@H]6CCCN6C(=O)[C@@H](NC(=O)OC)C(C)C)nc5cc4F)cc3)cc2[nH]1)C(C)C [Compound 27, Dimethyl (2S,2′S)-1,1′-((2S,2′S)-2,2′-(5,5′-(1,4-phenylene)bis(6-fluoro-1H-benzo[d]imidazole-5,2-diyl))bis(pyrrolidine-2,1-diyl))bis(3-methyl-1-oxobutane-2,1-diyl)dicarbamate] | ≤ 5
CC(C)(C)OC(=O)N1CCN(C(=O)OCc2ccccc2)[C@H](c2nc3cc(C#Cc4ccc5[nH]c([C@@H]6CCCCN6C(=O)OCc6ccccc6)nc5c4)ccc3[nH]2)C1 [Compound 28, (S)-2-{5-[2-((S)-1-Benzyloxycarbonyl-piperidin-2-yl)-1H-benzoimidazol-5-ylethynyl]-1H-benzoimidazol-2-yl}-piperazine-1,4-dicarboxylic acid 1-benzyl ester 4-tert-butyl ester] | 5 to 5000
CC(C)(C)OC(=O)N1CCN(C(=O)OCc2ccccc2)[C@H](c2nc3cc(C#Cc4ccc5[nH]c([C@@H]6CN(C(=O)OC(C)(C)C)CCN6C(=O)OCc6ccccc6)nc5c4)ccc3[nH]2)C1 [Compound 29, (S)-2-{5-[2-((S)-1-Benzyloxycarbonyl-4-tert-butyloxycarbonyl-piperazin-2-yl)-1H-benzoimidazol-5-ylethynyl]-1H-benzoimidazol-2-yl}-piperazine-1,4-dicarboxylic acid 1-benzyl ester 4-tert-butyl ester] | > 5000
O=C(OCc1ccccc1)N1CCCC[C@H]1c1nc2cc(C#Cc3ccc4nc([C@@H]5CCCCN5C(=O)OCc5ccccc5)[nH]c4c3)ccc2[nH]1 [Compound 30, (S)-2-{5-[2-((S)-1-Benzyloxycarbonyl-piperidin-2-yl)-1H-benzoimidazol-5-ylethynyl]-1H-benzoimidazol-2-yl}-piperidine-1-carboxylic acid benzyl ester] | 5 to 5000
O=C(OCc1ccccc1)N1CCC[C@H]1c1nc2cc(C#Cc3ccc4[nH]c([C@@H]5CCCN5C(=O)OCc5ccccc5)nc4c3)ccc2[nH]1 [Compound 31, (S)-2-{5-[2-((S)-1-Benzyloxycarbonyl-pyrrolidin-2-yl)-1H-benzoimidazol-5-ylethynyl]-1H-benzoimidazol-2-yl}-pyrrolidine-1-carboxylic acid benzyl ester] | 5 to 5000
O=C([C@H]1CCCO1)N1CCC[C@H]1c1nc2cc(C#Cc3ccc4nc([C@@H]5CCCN5C(=O)[C@H]5CCCO5)[nH]c4c3)ccc2[nH]1 [Compound 32, [(S)-5-(5-{2-[(S)-1-((R)-tetrahydro-furan-2-carbonyl)-pyrrolidin-2-yl]-1H-benzoimidazol-5-ylethynyl}-1H-benzoimidazol-2-yl)-pyrrolidin-1-yl]-(R)-tetrahydro-furan-2-yl-methanone] | 5 to 5000
